# Experimental data as given in patent US12728107B2, “Sirtuin activator, and method for activating sirtuin” (Yuki Gosei Kogyo Co., Ltd., priority 2020, dated 2026).
# Read-outs that look alike come from different tables or passages of the source.
# Legend:
# [1] = test system: senescence-associated β-galactosidase (SA-β-Gal) in skin dermal fibroblasts; assay: Senescence marker SA-β-Gal activity (C12FDG fluorescence) in etoposide-treated skin dermal fibroblasts; conditions: FIG. 4
# [2] = test system: Sirt1 gene; conditions: differentiated C2C12 cells; β-alanine 500 μM and 1 mM; added twice, 24 h apart; vs 1×PBS control; FIG. 1
# [3] = test system: Sirt3 gene; conditions: skin dermal cells; culture supernatant of C2C12 cells treated with β-alanine; FIG. 3
# Procedure: (§1) In this example, the activation of the sirtuin gene in skin dermal cells via a substance secreted from muscle cells (C2C12 cells) by β-alanine was examined.
# (§2) C2C12 cells were seeded in 5-mL Dish at 2.0×10^5 cells/well, and 48 hours later, the medium was replaced with DMEM medium containing 2% HS to induce differentiation. The culture medium was changed every 2 days to a new medium, and differentiation was induced. Then, the medium was changed every 2 days and β-alanine was added, and the culture supernatant was collected after 8 days of culture. 1×PBS was added to the control cells. After 24 hours of the addition, sample was secondary added, and the culture supernatant was collected after 24 hours of the second addition of sample.
# (§3) Specifically, cells were seeded at a concentration of 3.0×10^4 cells/mL in a 5 mL dish.
# (§4) RNA extraction from cells, cDNA synthesis, and RT-PCR were performed by the same procedure as in Example 2. The sequences of the used primers of the human sirt6 gene are as follows.
# [4] = test system: Sirt6 gene; conditions: skin dermal cells; culture supernatant of C2C12 cells treated with β-alanine; FIG. 3
# Procedure: as §1, §2, §3, §4
# [5] = test system: Sirt1 gene; conditions: skin dermal cells; culture supernatant of C2C12 cells treated with β-alanine; FIG. 3
# Procedure: as §1, §2, §3, §4
# [6] = test system: Sirt3 gene; conditions: differentiated C2C12 cells; β-alanine 500 μM and 1 mM; added twice, 24 h apart; vs 1×PBS control; FIG. 1
# [7] = test system: Sirt3 gene; conditions: HaCaT cells; β-alanine 500 μM and 10 mM; added twice, 24 h apart; vs 1×PBS control; FIG. 2
# Procedure: (§5) In this example, a transcription of the Sirt1 gene and Sirt3 gene in HaCaT cells, a human epidermal keratinocyte cell line, was measured.
# (§6) HaCaT cells were seeded in 6-well plates at 6.0×10^4 cells/well. After 24 hours, β-alanine was added to the cells, and 1×PBS was added to the control cells. After 24 hours of the addition, sample was secondary added, and the medium was aspirated after 24 hours of the second addition of sample. Then, 1×PBS was added at 1 mL/well to wash the cells. RNA extraction from cells, cDNA synthesis, and RT-PCR were performed by the same procedure as in Example 1. The sequences of the used primers of the human sirtuin genes are as follows.
# [8] = test system: Sirt1 gene; conditions: HaCaT cells; β-alanine 500 μM and 10 mM; added twice, 24 h apart; vs 1×PBS control; FIG. 2
# Procedure: as §5, §6
SMILES,"fluorescence intensity of C12FDG (SA-β-Gal activity) ([1]; dermal fibroblasts, etoposide 50 μM for 30 minutes, vs DMSO control)",expression of Sirt1 [2],"fluorescence intensity of C12FDG (SA-β-Gal activity) ([1]; etoposide-treated dermal fibroblasts, culture supernatant of β-alanine-treated C2C12 cells, 48 hours)",expression of Sirt3 [3],expression of Sirt6 [4],expression of Sirt1 [5],expression of Sirt3 [6],expression of Sirt3 [7],expression of Sirt1 [8]
"COc1cc([C@@H]2c3cc4c(cc3[C@@H](O[C@@H]3O[C@@H]5CO[C@@H](C)O[C@H]5[C@H](O)[C@H]3O)[C@H]3COC(=O)[C@H]23)OCO4)cc(OC)c1O [etoposide, reference compound]",significantly enhanced,–,–,–,–,–,–,–,–
"NCCC(=O)O [β-alanine, 3-aminopropanoic acid]",–,enhanced,decreased,enhanced,enhanced,enhanced,enhanced,enhanced,enhanced
